Data taken from patent US8492391B2, “Substituted 6-(2-hydroxybenzylamino)purine derivatives, their use as medicaments and compositions containing these derivatives” (Univerzita Palackeho V Olomouci, priority 2009, dated 2013).
Where two headings read alike, the source gives them in different places.

Experiments:
[1] = tested on: MCF7 (human breast adenocarcinoma); experiment: Calcein AM cytotoxicity assay, MCF7; assay type: cell-based; conditions: MCF7, read-out: Cytotoxic activity IC50 (μM) MCF7
Source text: (§1) Cytotoxicity of the compounds is the major property determining their anticancer effect in vivo. One of the parameters used, as the basis for cytotoxicity assays, is the metabolic activity of viable cells. For example, a microtiter assay, which uses the Calcein AM, is now widely used to quantitate cell proliferation and cytotoxicity. For instance, this assay is used in drug screening programs and in chemosensitivity testing. Because only metabolically active cells cleave Calcein AM, these assays detect viable cells exclusively. The quantity of cleaved Calcein AM corresponds to the number of vital cells in the culture. We have been using the following cell lines: MCF7 (human breast adenocarcinoma), K562 (human chronic myelogenous leukaemia), HOS (human osteogenic sarcoma), HeLa (human cervical carcinoma), HL 60 (human promyelocytic leukaemia), G 361 (human malignant melanoma), CEM (human lymphoblastoid leukaemia). All cell lines were grown in DMEM medium (Gibco BRL) supplemented with 10% (v/v) fetal bovine serum and L-glutamine and maintained at 37° C. in a humidified atmosphere with 5% CO2. For cytotoxicity assays, 10^4 cells were seeded into each well of 96 well plate, allowed to stabilize for at least 2 h and then tested compounds were added at various concentrations ranging from 100 to 0.1 μM in triplicates. Three days after drug addition Calcein AM solution (Molecular Probes) was added and let to enter the cells for 1 hour. Fluorescence of viable cells was quantified using Fluoroskan Ascent (Microsystems).

[2] = tested on: K562 (human chronic myelogenous leukaemia); experiment: Calcein AM cytotoxicity assay, K562; assay type: cell-based; conditions: read-out: Cytotoxic activity IC50 (μM) K562
Source text: as §1

CDK9/cyclin T = target: T1, CDK9/cyclin T (Homo sapiens, UniProt P50750); experiment: CDK9/cyclin T kinase inhibition assay; assay type: biochemical; conditions: kinase inhibitory activity, 15 μM ATP, (YSPTSPS)3 peptide substrate
T1 construct: made in house; host or cells: Sf9 insect cells, baculovirus co-infection
Protocol: (§2) Selected compounds were tested for CDK1/cyclin B, CDK2/cyclin E, CDK5/p25, CDK7/cyclin H and CDK9/cyclin T inhibitory activity to determine the basic relationships between their structure and the inhibitory activity. Cdk/cyclin complexes were expressed in Sf9 cells co-infected with appropriate baculoviral construct. The cells were harvested 70 hours post infection in lysis buffer (50 mM Tris pH 7.4, 150 mM NaCl, 5 mM EDTA, 20 mM NaF, 1% Tween 20, protease inhibitors) for 30 min on ice and the soluble fraction was recovered by centrifugation at 14.000 g for […]. The protein extract was stored at −80° C. until use. The final point test system for kinase activity measurement was used to carry out experiments on the kinetics under linear conditions. […] ATP and tested compound in a final volume of 20 μl, all in reaction buffer: 50 mM Hepes pH 7.4, 10 mM MgCl2, 5 mM EGTA, 10 mM 2-glycerolphosphate, 1 mM NaF, 1 mM DTT and protease inhibitors. After 30 min, the incubations were stopped by adding 5% H3PO4 and then the proteins were separated by phosphocellulose binding. The measurement of kinase inhibition employed the digital imaging analyzer BAS 1800. The kinase activity was expressed as a percentage of maximum activity and the IC50 value was determined by graphic analysis. The kinase activity is expressed as a percentage of maximum activity (FIG. 1).

CDK2/cyclin E = target: T2, CDK2/cyclin E (Homo sapiens, UniProt P24941); experiment: CDK2/cyclin E kinase inhibition assay; assay type: biochemical; conditions: kinase inhibitory activity, 15 μM ATP, histone substrate
T2 construct: made in house; host or cells: Sf9 insect cells, baculovirus co-infection
Protocol: as §2

[3] = tested on: HOS (human osteogenic sarcoma); experiment: Calcein AM cytotoxicity assay, HOS; assay type: cell-based; conditions: read-out: Cytotoxic activity IC50 (μM) HOS
Source text: as §1

p53 = experiment: p53-dependent transcription, β-galactosidase reporter in Arn8 cells; assay type: cell-based, human; set-up: key to p53 (effect): induction of p53 protein: ++: very strong; +: weak; −: no effect; conditions: for p53 (effect): induction of p53 protein: Arn8 cells stable transfected with a β-galactosidase reporter gene; for p53 (peak concentration in μM): Arn8 cells, concentration inducing maximum of β-galactosidase activity
Source text: Protein p53, accumulated in nuclei upon treatment by the compounds, then leads to trans-activation of natural cell cycle inhibitor p21^WAF1, further blocking the cell cycle. […] This allows qualitative as well as quantitative measurement of CDK inhibitors-induced p53 transcriptional activity via β-galactosidase assay. Then, the effect will be verified in treated cells by immunoblotting of proteins expressed under the control of p53. β-galactosidase activity of human melanoma cell line Arn8 was determined as described. […] Alternatively, β-galactosidase activity was quantified by measuring fluorescence of methylumbelliferyl-β-D-galactopyranoside cleavage product. Cell lines established from the human breast carcinoma (MCF-7) and the human melanoma (Arn8) cell lines were cultured in Dubecco's Modified Eagle Medium (DMEM) supplemented with 10% foetal bovine serum.
Effects of prepared compounds on activation of p53 protein were analysed in human melanoma cell line Arn8. […] The total β-galactosidase activity in Arn8 cells was quantified using a fluorimetric assay.

T1 sequence (P50750 whole entry, species assumed): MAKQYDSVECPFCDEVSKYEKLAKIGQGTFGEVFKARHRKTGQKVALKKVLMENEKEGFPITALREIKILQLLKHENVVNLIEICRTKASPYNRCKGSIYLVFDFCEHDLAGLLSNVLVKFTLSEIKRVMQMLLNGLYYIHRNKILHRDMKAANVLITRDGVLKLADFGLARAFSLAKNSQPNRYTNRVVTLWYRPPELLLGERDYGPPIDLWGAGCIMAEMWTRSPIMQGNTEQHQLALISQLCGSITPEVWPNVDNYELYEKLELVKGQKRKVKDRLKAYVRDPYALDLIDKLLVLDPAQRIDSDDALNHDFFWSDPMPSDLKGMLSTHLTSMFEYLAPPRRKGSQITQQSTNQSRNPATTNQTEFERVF
T1 sequence (O60563 whole entry partner, species assumed): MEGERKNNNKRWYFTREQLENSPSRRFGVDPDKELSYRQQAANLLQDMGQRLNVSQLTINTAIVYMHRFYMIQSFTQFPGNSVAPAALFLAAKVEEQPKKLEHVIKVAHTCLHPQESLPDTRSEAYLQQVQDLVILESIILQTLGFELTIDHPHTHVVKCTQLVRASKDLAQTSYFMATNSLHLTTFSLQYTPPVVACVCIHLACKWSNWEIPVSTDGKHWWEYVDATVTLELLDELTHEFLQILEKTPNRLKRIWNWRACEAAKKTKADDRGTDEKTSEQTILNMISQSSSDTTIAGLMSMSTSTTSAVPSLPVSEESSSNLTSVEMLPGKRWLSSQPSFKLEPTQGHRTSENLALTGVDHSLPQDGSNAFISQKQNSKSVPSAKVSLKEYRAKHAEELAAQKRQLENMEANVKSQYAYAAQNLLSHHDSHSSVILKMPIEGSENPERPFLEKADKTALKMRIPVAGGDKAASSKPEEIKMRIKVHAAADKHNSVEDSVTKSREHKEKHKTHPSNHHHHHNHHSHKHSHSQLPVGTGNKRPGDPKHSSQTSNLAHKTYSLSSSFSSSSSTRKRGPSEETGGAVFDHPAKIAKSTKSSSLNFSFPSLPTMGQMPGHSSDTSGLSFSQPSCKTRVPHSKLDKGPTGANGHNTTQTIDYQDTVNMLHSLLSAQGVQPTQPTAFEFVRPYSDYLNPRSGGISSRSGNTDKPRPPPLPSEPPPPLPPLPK

SMILES | IC50 ([1]; Homo sapiens) [µM] | IC50 ([2]; Homo sapiens) [µM] | IC50 (CDK9/cyclin T) [µM] | IC50 (CDK2/cyclin E) [µM] | IC50 ([3]; Homo sapiens) [µM] | further results
Cn1cnc2c(NCc3cc(Cl)ccc3O)nc(NC3CCCCC3N)nc21 (stereo not shown) [Compound 1] | 43 | 78 | 0.18 | 0.29 | 65 | 
Cn1cnc2c(NCc3cc(Cl)ccc3O)nc(NC3CCC(N)CC3)nc21 (stereo not shown) [Compound 2] | 46 | 82 | 0.15 | 0.27 | 64 | 
CCC(CO)Nc1nc(NCc2cc(Cl)ccc2O)c2ncn(C)c2n1 (stereo not shown) [Compound 3] | 55 | 84 | 0.12 | 0.3 | 71 | 
CC(C)C(CO)Nc1nc(NCc2cc(Cl)ccc2O)c2ncn(C)c2n1 (stereo not shown) [Compound 4] |  |  | 0.08 | 0.25 |  | 
Cn1cnc2c(NCc3cc(F)ccc3O)nc(NC3CCCCC3N)nc21 (stereo not shown) [Compound 7] | 35 | 61 | 0.15 | 0.26 | 47 | 
Cn1cnc2c(NCc3cc(F)ccc3O)nc(NC3CCC(N)CC3)nc21 (stereo not shown) [Compound 8] | 39 | 64 | 0.12 | 0.25 | 50 | 
CCC(CO)Nc1nc(NCc2cc(F)ccc2O)c2ncn(C)c2n1 (stereo not shown) [Compound 9] | 42 | 67 | 0.17 | 0.3 | 53 | 
COc1cccc(CNc2nc(NC3CCCCC3N)nc3c2ncn3C)c1O (stereo not shown) [Compound 31] | 36 | 60 | 0.19 | 0.26 | 45 | 
COc1cccc(CNc2nc(NC3CCC(N)CC3)nc3c2ncn3C)c1O (stereo not shown) [Compound 32] |  |  | 0.18 | 0.22 |  | 
CCC(CO)Nc1nc(NCc2cccc(OC)c2O)c2ncn(C)c2n1 (stereo not shown) [Compound 34] |  |  | 0.16 | 0.27 |  | 
CCn1cnc2c(NCc3cc(Cl)ccc3O)nc(NC3CCCCC3N)nc21 (stereo not shown) [Compound 47] |  |  |  |  |  | IC50 [1]: 32 µM; IC50 [2]: 55 µM; IC50 [3]: 41 µM
CCn1cnc2c(NCc3cc(Cl)ccc3O)nc(NC3CCC(N)CC3)nc21 (stereo not shown) [Compound 48] |  |  | 0.09 | 0.14 |  | 
CCC(CO)Nc1nc(NCc2cc(Cl)ccc2O)c2ncn(CC)c2n1 (stereo not shown) [Compound 50] | 38 | 58 | 0.12 | 0.13 | 44 | 
CCn1cnc2c(NCc3cc(F)ccc3O)nc(NC3CCC(N)CC3)nc21 (stereo not shown) [Compound 51] | 32 | 52 | 0.1 | 0.16 | 40 | 
CCn1cnc2c(NCc3cc(C)ccc3O)nc(NC3CCCCC3N)nc21 (stereo not shown) [Compound 59] |  |  | 0.05 | 0.12 |  | 
CCn1cnc2c(NCc3cccc(OC)c3O)nc(NC3CCC(N)CC3)nc21 (stereo not shown) [Compound 70] |  |  | 0.07 | 0.11 |  | 
CCC(CO)Nc1nc(NCc2ccc(OC)cc2O)c2ncn(CC)c2n1 (stereo not shown) [Compound 73] |  |  | 0.09 | 0.17 |  | 
CC(C)n1cnc2c(NCc3cc(Cl)ccc3O)nc(NC3CCCCC3N)nc21 (stereo not shown) [Compound 76] | 2.8 | 9.9 | 0.03 | 0.05 | 4.1 | 
CC(C)n1cnc2c(NCc3cc(Cl)ccc3O)nc(NC3CCC(N)CC3)nc21 (stereo not shown) [Compound 77] |  |  | 0.01 | 0.04 |  | 
CC(C)n1cnc2c(NCc3cc(Cl)ccc3O)nc(NC(C)C(C)(C)O)nc21 (stereo not shown) [Compound 82] |  |  | 0.01 | 0.04 |  | 

SMILES | IC50 ([1]; Homo sapiens) [µM] | IC50 ([2]; Homo sapiens) [µM] | IC50 (CDK9/cyclin T) [µM] | IC50 (CDK2/cyclin E) [µM] | IC50 ([3]; Homo sapiens) [µM] | further results
CC(C)n1cnc2c(NCc3cc(Cl)ccc3O)nc(NCCC(C)(C)O)nc21 [Compound 83] |  |  | 0.007 | 0.02 |  | 
CCC(CO)Nc1nc(NCc2cccc(C)c2O)c2ncn(C(C)C)c2n1 (stereo not shown) [Compound 101] |  |  | 0.04 |  |  | 
CCC(CO)Nc1nc(NCc2cccc(O)c2O)c2ncn(C(C)C)c2n1 (stereo not shown) [Compound 113] | 4.5 | 7.8 | 0.04 |  | 8.4 | 
CC(C)C(CO)Nc1nc(NCc2cccc(O)c2O)c2ncn(C(C)C)c2n1 (stereo not shown) [Compound 114] |  |  |  |  |  | p53 (effect): induction of p53 protein (p53): ++; p53 (peak concentration in μM) (p53): 12.0 µM
CC(C)n1cnc2c(NCc3cc(O)ccc3O)nc(NC3CCCCC3N)nc21 (stereo not shown) [Compound 121] |  |  | 0.07 | 0.08 |  | 
COc1cccc(CNc2nc(NCC(C)O)nc3c2ncn3C(C)C)c1O (stereo not shown) [Compound 127] |  |  | 0.06 | 0.08 |  | 
COc1cccc(CNc2nc(NC3CCC(O)CC3)nc3c2ncn3C(C)C)c1O (stereo not shown) [Compound 136] |  |  | 0.03 | 0.05 |  | 
CCC(CO)Nc1nc(NCc2ccc(OC)cc2O)c2ncn(C(C)C)c2n1 (stereo not shown) [Compound 139] |  |  | 0.04 | 0.09 |  | 
COc1ccc(O)c(CNc2nc(NC3CCCCC3N)nc3c2ncn3C(C)C)c1 (stereo not shown) [Compound 143] |  |  |  |  |  | IC50 [1]: 5 µM; IC50 [2]: 13.1 µM
NC1CCCCC1Nc1nc(NCc2cc(Cl)ccc2O)c2ncn(Cc3ccccc3)c2n1 (stereo not shown) [Compound 179] |  |  |  |  |  | IC50 [1]: 8.7 µM; IC50 [2]: 19.5 µM; IC50 [3]: 10.2 µM
NC1CCCCC1Nc1nc(NCc2cc(F)ccc2O)c2ncn(Cc3ccccc3)c2n1 (stereo not shown) [Compound 186] |  |  |  |  |  | IC50 [1]: 6.9 µM; IC50 [2]: 15.4 µM; IC50 [3]: 9.3 µM
CC[C@H](CO)Nc1nc(NCc2ccccc2O)c2ncn(C(C)C)c2n1 [OCII, olomoucine II, reference compound] |  |  |  |  |  | p53 (effect): induction of p53 protein (p53): ++; p53 (peak concentration in μM) (p53): 12.0 µM
CCC(CC)n1cnc2c(NCc3cc(Cl)ccc3O)nc(NC3CCCCC3N)nc21 (stereo not shown) [compound 223] |  |  | 0.05 | 0.08 |  | IC50 [1]: 4.8 µM; IC50 [2]: 17.6 µM; IC50 [3]: 6.8 µM
CCC(CO)Nc1nc(NCc2cc(Cl)ccc2O)c2ncn(C(CC)CC)c2n1 (stereo not shown) [compound 224] | 5.5 | 15.6 | 0.06 | 0.09 | 7.2 | 
CCC(CC)n1cnc2c(NCc3cc(F)ccc3O)nc(NC3CCCCC3N)nc21 (stereo not shown) [compound 226] |  |  |  |  |  | IC50 [1]: 4.1 µM; IC50 [2]: 12.4 µM; IC50 [3]: 4.3 µM
CCC(CC)n1cnc2c(NCc3cc(F)ccc3O)nc(NC3CCC(N)CC3)nc21 (stereo not shown) [compound 227] |  |  | 0.01 | 0.06 |  | 
CCC(CO)Nc1nc(NCc2cc(F)ccc2O)c2ncn(C(CC)CC)c2n1 (stereo not shown) [compound 228] | 4.6 | 13.2 | 0.04 | 0.07 | 6.8 | 
CCC(CO)Nc1nc(NCc2cccc(OC)c2O)c2ncn(C(CC)CC)c2n1 (stereo not shown) [compound 237] |  |  | 0.02 | 0.04 |  | 
CCC(CC)n1cnc2c(NCc3cccc(OC)c3O)nc(NC3CCCCC3N)nc21 (stereo not shown) [compound 238] |  |  | 0.04 | 0.06 |  | 
CCC(CO)Nc1nc(NCc2cc(OC)ccc2O)c2ncn(C(CC)CC)c2n1 (stereo not shown) [compound 240] |  |  | 0.07 | 0.1 |  | 
